Measured values from US20230114241A1, “METHODS OF TREATING EPILEPSY USING THE SAME” (Trevena, Inc., priority 2019, published 2023).

target: human sphingosine-1-phosphate receptor 1 (S1P1) (Homo sapiens, UniProt P21453); assay: Inhibition of cAMP production (HTRF cAMP HiRange), S1P1 CHO-K1 cells; type: cell-based; details: inhibition of cAMP production, S1P1; read-out: hS1P1 CAMP pEC50 (converted)
Method in brief: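 Intracellular cAMP changes read by TR-FRET (HTRF HiRange, 1 h room temperature) after 30 min compound exposure at 37 °C. Cells: overnight-plated CHO-K1 stably expressing tagged human S1P1 with EA-β-arrestin2. Responses normalized to fingolimod.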

human sphingosine-1-phosphate receptor 1 (S1P1), sequence (P21453 whole entry): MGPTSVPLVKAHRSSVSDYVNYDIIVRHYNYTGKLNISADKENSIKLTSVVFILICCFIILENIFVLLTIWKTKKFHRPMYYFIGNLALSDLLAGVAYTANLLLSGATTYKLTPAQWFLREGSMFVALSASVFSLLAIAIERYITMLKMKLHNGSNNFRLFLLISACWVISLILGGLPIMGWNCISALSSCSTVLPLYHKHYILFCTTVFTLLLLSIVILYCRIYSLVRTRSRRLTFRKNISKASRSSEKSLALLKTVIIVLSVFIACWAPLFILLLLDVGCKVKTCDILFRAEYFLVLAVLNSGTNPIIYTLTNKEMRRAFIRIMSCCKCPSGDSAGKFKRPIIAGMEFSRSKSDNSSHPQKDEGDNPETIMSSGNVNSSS

Row | Structure (SMILES) | EC50 [nM]
1 | CC(C)Cn1nnc2cc(-c3nc4c(Br)cccc4o3)ccc21 [Compound 461, 4-bromo-2-(1-isobutyl-1H-benzo[d][1,2,3]triazol-5-yl)benzo[d]oxazole] | > 316
2 | Cc1ccccc1-c1cc(-c2ccc3c(c2)nnn3C(C)C)n(C)c1 [Compound 517, 5-[1-methyl-4-(2-methylphenyl)-1H-pyrrol-2-yl]-1-(propan-2-yl)-1H-1,2,3-benzotriazole] | > 316
3 | CC(C)Oc1ccc(-c2ccc(-c3ccc4c(c3)nnn4C(C)C)cc2)cc1C#N [Compound 506, 4-isopropoxy-4′-(1-isopropyl-1H-benzo[d][1,2,3]triazol-5-yl)-[1,1′-biphenyl]-3-carbonitrile] | < 316
4 | CNc1ccccc1-c1coc(-c2ccc3c(c2)nnn3C(C)C)n1 [Compound 587, N-methyl-2-{2-[1-(propan-2-yl)-1H-1,2,3-benzotriazol-5-yl]-1,3-oxazol-4-yl}aniline] | > 316
5 | Cc1ccncc1-c1nc(-c2ccc3c(c2)nnn3C(C)(C)CO)no1 [Compound 625, 2-methyl-2-(5-(5-(4-methylpyridin-3-yl)-1,2,4-oxadiazol-3-yl)-1H-benzo[d] [1,2,3]triazol-1-yl)propan-1-ol] | > 316
6 | COc1cccc2oc(-c3ccc4c(c3)nnn4C(C)C)nc12 [Compound 424, 2-(1-isopropyl-1H-benzo[d][1,2,3]triazol-5-yl)-4-methoxy-benzo[d]oxazole] | < 316
7 | CC(=O)Nc1ccccc1-c1coc(-c2ccc3c(c2)nnn3C(C)C)n1 [Compound 458, N-(2-{2-[1-(propan-2-yl)-1H-1,2,3-benzotriazol-5-yl]-1,3-oxazol-4-yl}phenyl)acetamide] | > 316
8 | CC(C)n1nnc2cc(-c3nc(-c4nccn4C)no3)ccc21 [Compound 569, 5-[3-(1-methyl-1H-imidazol-2-yl)-1,2,4-oxadiazol-5-yl]-1-(propan-2-y1)-1H-1,2,3-benzotriazole] | > 316
9 | CNc1ccccc1-c1nc(-c2ccc3c(c2)nnn3C(C)C)no1 [Compound 599, N-methyl-2-{3-[1-(propan-2-yl)-1H-l,2,3-benzotriazol-5-yl]-1,2,4-oxadiazol-5-yl}aniline] | < 316
10 | Cc1ccncc1-c1noc(-c2ccc3c(c2)nnn3C2CCOCC2)n1 [Compound 439, 5-[3-(4-methylpyridin-3-yl)-1,2,4-oxadiazol-5-yl]-1-(oxan-4-yl)-1H-1,2,3-benzotriazole] | > 316

same assay, conditions: inhibition of cAMP production; potency; read-out: hS1P1 CAMP pEC50 (converted)

Row | Structure (SMILES) | EC50 [nM]
11 | CC(C)n1nnc2cc(-c3nc(-c4ccc(OCc5ccccc5)cc4)no3)ccc21 [Compound 53, 5-{3-[4-(benzyloxy)phenyl]-1,2,4-oxadiazol-5-yl}-1-(propan-2-yl)-1H-1,2,3-benzotriazole] | > 316
12 | N#Cc1cc(-c2nc(-c3ccc4c(c3)CCC(=O)N4)no2)ccc1N [Compound 345, 2-amino-5-[3-(2-oxo-1,2,3,4-tetrahydro-quinolin-6-yl)-1,2,4-oxadiazol-5-yl]benzonitrile] | > 316
13 | CCC1(CC)CC(=O)c2cc(-c3nnc(-c4cccnc4)o3)ccc2O1 [Compound 28, 2,2-diethyl-6-(5-(pyridin-3-yl)-1,3,4-oxadiazol-2-yl)chroman-4-one] | > 316
14 | CC(C)n1ncc2cc(-c3nc(-c4ccccc4Br)no3)ccc21 [Compound 332, 3-(2-bromophenyl)-5-(1-isopropyl-1H-indazol-5-yl)-1,2,4-oxadiazole] | < 316
15 | C=CCNc1ccc(-c2nc(-c3ccc4[nH]ccc4c3)no2)cc1C#N [Compound 208, 5-(3-(1H-indol-5-yl)-1,2,4-oxadiazol-5-yl)-2-(allylamino) benzonitrile] | < 316
16 | Cc1ccc(-c2nc(-c3ccc4c(c3)nnn4C(C)C)no2)cn1 [Compound 119, 3-(1-isopropyl-1H-benzo[d][1,2,3]triazol-5-yl)-5-(6-methyl-pyridin-3-yl)-1,2,4-oxadiazole] | > 316
17 | CCC1(CC)CC(=O)c2cc(-c3nc(-c4ccncc4C(F)(F)F)no3)ccc2O1 [Compound 313, 2,2-diethyl-6-(3-(3-(trifluoromethyl)pyridin-4-yl)-1,2,4-oxadiazol-5-yl)chroman-4-one] | < 316
18 | CC(C)Oc1ccccc1-c1noc(-c2ccc3c(cnn3C(C)C)c2)n1 [Compound 334, 3-(2-isopropoxy-phenyl)-5-(1-isopropyl-1H-indazol-5-yl)-1,2,4-oxadiazole] | > 316
19 | N#Cc1cc(-c2nc(-c3ccc4c(c3)CCC(=O)N4)no2)ccc1NCC(F)F [Compound 344, 2-[(2,2-difluoroethyl)amino]-5-[3-(2-oxo-1,2,3,4-tetrahydroquinolin-6-yl)-1,2,4-oxadiazol-5-yl]benzonitrile] | < 316
20 | CC(C)n1nnc2cc(-c3nc(-c4ccccc4Br)no3)ccc21 [Compound 282, 5-[3-(2-bromophenyl)-1,2,4-oxadiazol-5-yl]-1-(propan-2-yl)-1H-1,2,3-benzotriazole] | < 316
21 | COc1ccccc1-c1noc(-c2ccc3c(c2)nnn3C(C)(C)C)n1 [Compound 207, 1-tert-butyl-5-[3-(2-methoxyphenyl)-1,2,4-oxadiazol-5-yl]-1H-1,2,3-benzotriazole] | < 316
22 | CC(C)n1nnc2cc(-c3noc(-c4ccccc4OC(F)(F)F)n3)ccc21 [Compound 240, 3-(1-isopropyl-1H-benzo[d][1,2,3]triazol-5-yl)-5-(2-(trifluoro-methoxy)phenyl)-1,2,4-oxadiazole] | > 316
23 | CC1(C)CC(=O)c2cc(-c3nc(-c4ccncc4)no3)ccc2O1 [Compound 291, 2,2-dimethyl-6-[3-(pyridin-4-yl)-1,2,4-oxadiazol-5-yl]-3,4-dihydro-2H-1-benzopy ran-4-one] | > 316
24 | Brc1ccccc1-c1nc(-c2ccc3c(c2)nnn3Cc2cccnc2)no1 [Compound 283, 5-(2-bromophenyl)-3-(1-(pyridin-3-ylmethyl)-1H-benzo[d][1,2,3]triazol-5-yl)-1,2,4-oxadiazole] | > 316
25 | N#Cc1cc(-c2nnc(-c3ccc4[nH]ncc4c3)o2)ccc1NCCF [Compound 353, 2-[(2-fluoroethyl)amino]-5-[5-(1H-indazol-5-yl)-1,3,4-oxadiazol-2-yl]benzonitrile] | < 316
26 | COc1ccccc1-c1noc(-c2ccc3c(c2)nnn3C2CC2)n1 [Compound 173, 1-cyclopropyl-5-[3-(2-methoxyphenyl)-1,2,4-oxadiazol-5-yl]-1H-1,2,3-benzotriazole] | < 316

Row | Structure (SMILES) | EC50 [nM]
27 | Cc1ccncc1-c1nc(-c2ccc3c(c2)nnn3C(C)C)no1 [Compound 100, 3-(1-isopropyl-1H-benzo[d][1,2,3]triazol-5-yl)-5-(4-methyl-pyridin-3-yl)-1,2,4-oxadiazole] | > 316
28 | CCC1(CC)CC(=O)c2cc(-c3nsc(-c4cccnc4)n3)ccc2O1 [Compound 137, 2,2-diethyl-6-(5-(pyridin-3-yl)-1,2,4-thiadiazol-3-yl)chroman-4-one] | < 316
29 | FC(F)Oc1ccc(-c2noc(-c3ccc4c(c3)nnn4C3CCCC3)n2)cc1 [Compound 80, 1-cyclopentyl-5-{3-[4-(difluoromethoxy)phenyl]-1,2,4-oxadiazol-5-yl}-1H-1,2,3-benzotriazole] | < 316
30 | CCC1(CC)CC(=O)c2cc(-c3nc(-c4ccnc(OC)c4)no3)ccc2O1 [Compound 38, 2,2-diethyl-6-(3-(2-methoxypyridin-4-yl)-1,2,4-oxadiazol-5-yl)chroman-4-one] | > 316
31 | CC(C)n1nnc2cc(-c3nc(-c4ccccc4Br)co3)ccc21 [Compound 183, 5-[4-(2-bromophenyl)-1,3-oxazol-2-yl]-1-(propan-2-yl)-1H-1,2,3-benzotriazole] | < 316
32 | CC(F)CNc1ccc(-c2nc(-c3ccc4c(c3)CCC(=O)N4)no2)cc1C#N (centres unmarked) [Compound 348, 2-[(2-fluoropropyl)amino]-5-[3-(2-oxo-1,2,3,4-tetrahydroquinolin-6-yl)-1,2,4-oxadiazol-5-yl]benzonitrile] | < 316
33 | CCC1(CC)CC(=O)c2cc(-c3nc(-c4ccnc(F)c4)no3)ccc2O1 [Compound 146, 2,2-diethyl-6-(3-(2-fluoropyridin-4-yl)-1,2,4-oxadiazol-5-yl)chroman-4-one] | < 316
34 | CCC1(CC)CC(=O)c2cc(-c3nc(-c4ccc(N)cc4)no3)ccc2O1 [Compound 256, 6-(3-(4-amino-phenyl)-1,2,4-oxadiazol-5-yl)-2,2-diethylchroman-4-one] | < 316
35 | CC(C)n1nnc2cc(-c3nc(-c4ccc5nncn5c4)no3)ccc21 [Compound 128, 1-(propan-2-yl)-5-(3-{[1,2,4]triazolo[4,3-a]pyridin-6-yl}-1,2,4-oxadiazol-5-yl)-1H-1,2,3-benzotriazole] | > 316
36 | N#Cc1cc(-c2nnc(-c3ccc4[nH]cnc4c3)o2)ccc1NCC1CC1 [Compound 357, 5-[5-(1H-1,3-benzo-diazol-5-yl)-1,3,4-oxadiazol-2-yl]-2-[(cyclopropylmethyl)amino]benzonitrile] | < 316
37 | CC(C)n1ccc2cc(-c3nc(-c4ccccc4Br)no3)ccc21 [Compound 322, 3-(2-bromophenyl)-5-(1-isopropyl-1H-indol-5-yl)-1,2,4-oxadiazole] | < 316
38 | Cc1cc(C)cc(Cc2noc(-c3ccc4c(c3)nnn4C(C)C)n2)c1 [Compound 126, 5-{3-[(3,5-dimethyl-phenyl)methyl]-1,2,4-oxadiazol-5-yl}-1-(propan-2-yl)-1H-1,2,3-benzotriazole] | > 316
39 | N#Cc1cc(-c2nnc(-c3ccc4[nH]cnc4c3)o2)ccc1NCCF [Compound 358, 5-[5-(1H-1,3-benzo-diazol-5-yl)-1,3,4-oxadiazol-2-yl]-2-[(2-fluoroethyl)amino] benzonitrile] | < 316
40 | CCC1(CC)CC(=O)c2cc(-c3nc(-c4cncc(O)c4)no3)ccc2O1 [Compound 310, 2,2-diethyl-6-[3-(5-hydroxy-3-pyridyl)-1,2,4-oxadiazol-5-yl]chroman-4-one] | < 316
41 | Cc1ccsc1-c1noc(-c2ccc3c(c2)nnn3CC(C)C)n1 [Compound 75, 1-(2-methylpropyl)-5-[3-(3-methylthiophen-2-yl)-1,2,4-oxadiazol-5-yl]-1H-1,2,3-benzotriazole] | < 316
